Laboratory results from article PMC6576746, “Rational discovery of dual-indication multi-target PDE/Kinase inhibitor for precision anti-cancer therapy using structural systems pharmacology” (PLoS Computational Biology, 2019).

How the values were obtained:
Assay in all cases: cells
Parameters in all cases: species or system panel of human cancer cell lines; Eurofins OncoPanel proliferation; nuclei count by high-content fluorescence imaging, 10-point dose response
Capan-2 = conditions: Homo sapiens, Capan-2, 72 h, cell count, 3 days
Method in brief: (§1)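 Ten half-log concentrations from 100 μM (0.1% DMSO max) applied one day post-seeding, 3-day exposure at 37°C; untreated time-zero plate for GI50. Readout is nuclear cell count by automated fluorescence imaging, giving EC50, IC50, GI50 and 0–10 activity area.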

Thp1 = conditions: Homo sapiens, THP-1, 72 h, cell count, 3 days
Method in brief: as §1

Raji = conditions: Homo sapiens, Raji, 72 h, cell count, 3 days
Method in brief: as §1

Detroit 562 = conditions: Homo sapiens, Detroit 562, 72 h, cell count, 3 days
Method in brief: as §1

Hs 729 = conditions: 72 h, cell count, 3 days
Method in brief: as §1

SK-LMS-1 = conditions: Homo sapiens, SK-LMS-1, 72 h, cell count, 3 days
Method in brief: as §1

EB-3 = conditions: Homo sapiens, EB-3, 72 h, cell count, 3 days
Method in brief: as §1

SW837 = conditions: Homo sapiens, SW837, 72 h, cell count, 3 days
Method in brief: as §1

OE21 = conditions: OE21, 72 h, cell count, 3 days
Method in brief: as §1

SW982 = conditions: Homo sapiens, SW982, 72 h, cell count, 3 days
Method in brief: as §1

D341 Med = conditions: D341 Med, 72 h, cell count, 3 days
Method in brief: as §1

SW684 = conditions: Homo sapiens, SW684, 72 h, cell count, 3 days
Method in brief: as §1

IM-9 = conditions: Homo sapiens, IM-9, 72 h, cell count, 3 days
Method in brief: as §1

HUH-6 Clone 5 = conditions: HUH-6-clone5, 72 h, cell count, 3 days
Method in brief: as §1

[1] = 50% of maximum possible response

Q: For C[C@@H]1CC(=O)NN=C1c1ccc(NN=C(C#N)C#N)cc1 [levosimendan], which IC50 (Capan-2; [1]) is on record?
A: Its IC50 is 49.7 µM.

Q: And the GI50 (Capan-2; corrected for time zero)?
A: Its GI50 is 42.3 µM.

Q: What about the EC50 (Capan-2; curve inflection point) of the same molecule?
A: Its EC50 is 49.7 µM.

Q: What about the IC50 (Thp1; [1]) of the same molecule?
A: The IC50 was 35.5 µM.

Q: And the GI50 (Thp1; corrected for time zero)?
A: Its GI50 is 23.1 µM.

Q: And the EC50 (Thp1; curve inflection point)?
A: The EC50 was 35.5 µM.

Q: And the IC50 (Raji; [1])?
A: The IC50 was 69.1 µM.

Q: What about the GI50 (Raji; corrected for time zero) of the same molecule?
A: The GI50 was 63.4 µM.

Q: What about the EC50 (Raji; curve inflection point) of the same molecule?
A: Its EC50 is 69.1 µM.

Q: What about the IC50 (Detroit 562; [1]) of the same molecule?
A: Its IC50 is 50.9 µM.

Q: And the GI50 (Detroit 562; corrected for time zero)?
A: Its GI50 is 28.4 µM.

Q: And the EC50 (Detroit 562; curve inflection point)?
A: The EC50 was 50.9 µM.

Q: What about the IC50 (Hs 729; [1]) of the same molecule?
A: The IC50 was over 100 µM.

Q: And the GI50 (Hs 729; corrected for time zero)?
A: The GI50 was 79.3 µM.

Q: And the EC50 (Hs 729; curve inflection point)?
A: Its EC50 is over 100 µM.

Q: And the IC50 (SK-LMS-1; [1])?
A: The IC50 was 27.1 µM.

Q: What about the GI50 (SK-LMS-1; corrected for time zero) of the same molecule?
A: The GI50 was 21.5 µM.

Q: And the EC50 (SK-LMS-1; curve inflection point)?
A: The EC50 was 27.1 µM.

Q: What about the IC50 (EB-3; [1]) of the same molecule?
A: The IC50 was 30 µM.

Q: And the GI50 (EB-3; corrected for time zero)?
A: Its GI50 is 23.6 µM.

Q: What about the EC50 (EB-3; curve inflection point) of the same molecule?
A: The EC50 was 30 µM.

Q: And the IC50 (SW837; [1])?
A: The IC50 was 37.5 µM.

Q: What about the GI50 (SW837; corrected for time zero) of the same molecule?
A: Its GI50 is 31.8 µM.

Q: What about the EC50 (SW837; curve inflection point) of the same molecule?
A: The EC50 was 33.3 µM.

Q: What about the IC50 (OE21; [1]) of the same molecule?
A: The IC50 was 85.5 µM.

Q: And the GI50 (OE21; corrected for time zero)?
A: The GI50 was 76 µM.

Q: What about the EC50 (OE21; curve inflection point) of the same molecule?
A: Its EC50 is 85.5 µM.

Q: What about the IC50 (SW982; [1]) of the same molecule?
A: Its IC50 is 43.7 µM.

Q: What about the GI50 (SW982; corrected for time zero) of the same molecule?
A: The GI50 was 31.3 µM.

Q: What about the EC50 (SW982; curve inflection point) of the same molecule?
A: The EC50 was 43.7 µM.

Q: And the IC50 (D341 Med; [1])?
A: Its IC50 is 73.8 µM.

Q: And the GI50 (D341 Med; corrected for time zero)?
A: Its GI50 is 39.6 µM.

Q: What about the EC50 (D341 Med; curve inflection point) of the same molecule?
A: The EC50 was 73.8 µM.

Q: And the IC50 (SW684; [1])?
A: Its IC50 is over 100 µM.

Q: What about the GI50 (SW684; corrected for time zero) of the same molecule?
A: Its GI50 is 17.1 µM.

Q: And the EC50 (SW684; curve inflection point)?
A: The EC50 was 21.1 µM.

Q: What about the IC50 (IM-9; [1]) of the same molecule?
A: The IC50 was 41 µM.

Q: And the GI50 (IM-9; corrected for time zero)?
A: Its GI50 is 35.5 µM.

Q: And the EC50 (IM-9; curve inflection point)?
A: Its EC50 is 41 µM.

Q: What about the IC50 (HUH-6 Clone 5; [1]) of the same molecule?
A: Its IC50 is 27.1 µM.

Q: What about the GI50 (HUH-6 Clone 5; corrected for time zero) of the same molecule?
A: Its GI50 is 20 µM.

Q: And the EC50 (HUH-6 Clone 5; curve inflection point)?
A: The EC50 was 27.1 µM.
